As usually defined, the IC50 is the midpoint of a concentration-inhibition curve.

The target of the test is T1, chicken gizzard smooth muscle myosin subfragment-1 chemically crosslinked to cardiac or skeletal actin (Gallus gallus, UniProt P10587).
T1 construct: chicken gizzard smooth muscle myosin subfragment-1; from tissue; host or cells: chicken gizzard
T1 sequence (P02607 2-151): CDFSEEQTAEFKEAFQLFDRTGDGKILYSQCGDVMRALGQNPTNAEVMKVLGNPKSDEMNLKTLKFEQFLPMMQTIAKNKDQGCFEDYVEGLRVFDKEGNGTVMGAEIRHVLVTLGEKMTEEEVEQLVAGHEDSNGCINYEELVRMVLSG
T1 sequence (P10587 84-789): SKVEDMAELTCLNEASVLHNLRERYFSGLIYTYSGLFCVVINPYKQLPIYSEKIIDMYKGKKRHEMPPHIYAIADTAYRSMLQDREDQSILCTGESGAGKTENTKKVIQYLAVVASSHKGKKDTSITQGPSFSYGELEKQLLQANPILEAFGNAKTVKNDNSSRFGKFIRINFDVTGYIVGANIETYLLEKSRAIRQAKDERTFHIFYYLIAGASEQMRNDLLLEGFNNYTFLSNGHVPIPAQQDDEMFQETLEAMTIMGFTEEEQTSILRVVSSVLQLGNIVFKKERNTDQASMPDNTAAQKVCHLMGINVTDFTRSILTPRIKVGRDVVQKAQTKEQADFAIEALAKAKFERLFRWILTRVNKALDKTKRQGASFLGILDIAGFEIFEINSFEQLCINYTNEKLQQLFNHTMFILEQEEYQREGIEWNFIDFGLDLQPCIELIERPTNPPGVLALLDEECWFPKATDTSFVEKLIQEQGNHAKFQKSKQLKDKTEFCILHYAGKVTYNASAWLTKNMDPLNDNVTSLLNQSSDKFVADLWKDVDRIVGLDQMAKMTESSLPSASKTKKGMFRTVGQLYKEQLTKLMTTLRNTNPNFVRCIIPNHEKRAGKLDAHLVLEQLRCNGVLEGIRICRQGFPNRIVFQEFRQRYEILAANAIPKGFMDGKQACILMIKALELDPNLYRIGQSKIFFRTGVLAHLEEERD
Description: Smooth muscle myosin ATPase dose response assay (pyruvate kinase/horseradish peroxidase/pyruvate oxidase-coupled, amplex red fluorescence). Format: biochemical. Conditions: read-out: IC50 Arithmetic Mean. The method in brief:
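Lead-optimization format: ATPase coupled via pyruvate kinase, pyruvate oxidase and peroxidase, pH 7.00 at 22° C, with 0.15 mM ATP, 100 mM KCl, 2 mM MgCl2, 2 mM phosphate and 0.1 mM amplex red (final). Crosslinked S1 titrated empirically for set hydrolysis rate; fluorescence (ex 480/em 615 nm) dose curves fit 4-parameter for IC50.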
For `N#Cc1ccccc1-c1ccc(C(=O)NC[C@@H]2CCC(=O)N2CCN)c(NCCc2cccc(F)c2)n1` [N-{[(2S)-1-(2-aminoethyl)-5-oxopyrrolidin-2-yl]methyl}(6-(2-cyanophenyl)-2-{[2-(3-fluorophenyl)ethyl]amino}(3-pyridyl))carboxamide], the concentration for half-maximal inhibition (IC50) is 917 nM. For `N#Cc1ccccc1-c1ccc(C(=O)NCc2cc[nH]n2)c(NCCc2cccc(F)c2)n1` [(6-(2-cyanophenyl)-2-{[2-(3-fluorophenyl)ethyl]amino}(3-pyridyl))-N-(pyrazol-3-ylmethyl)carboxamide] the value was 15 nM; for `N#CCc1ccccc1-c1ccc(C(=O)NCc2cccnc2)c(NCCc2cccc(F)c2)n1` [(6-[2-(cyanomethyl)phenyl]-2-{[2-(3-fluorophenyl)ethyl]amino}(3-pyridyl))-N-(3-pyridylmethyl)carboxamide], 16400 nM; for `CC(C)(C)OC(=O)NCc1ncccc1CNC(=O)c1ccc(-c2ccccc2C#N)nc1NCCc1cccc(F)c1` [N-[(2-{[(tert-butoxy)carbonylamino]methyl}(3-pyridyl))methyl](6-(2-cyanophenyl)-2-{[2-(3-fluorophenyl)ethyl]amino}(3-pyridyl))carboxamide], 1210 nM. Regarding `CNC(=O)[C@@H](N)CCNC(=O)c1ccc(-c2ccccc2C#N)nc1NCCc1cccc(F)c1` [(2S)-2-amino-4-[(6-(2-cyanophenyl)-2-{[2-(3-fluorophenyl)ethyl]amino}(3-pyridyl))carbonylamino]-N-methylbutanamide], the IC50 came to 5020 nM.

Regarding `N#Cc1ccccc1-c1ccc(C(=O)NC[C@H]2CNCC(=O)N2)c(NCCc2cccc(F)c2)n1` [N-[((2R)-6-oxopiperazin-2-yl)methyl](6-(2-cyanophenyl)-2-{[2-(3-fluorophenyl)ethyl]amino}(3-pyridyl))carboxamide], the IC50 came to 155 nM. Consider `Cn1cc(-c2ccc(C(=O)NCC3CCN(CCCNC(=O)OC(C)(C)C)C3=O)c(NCCc3cccc(F)c3)n2)cn1` (centres unmarked) [N-[(1-{3-[(tert-butoxy)carbonylamino]propyl}-2-oxopyrrolidin-3-yl)methyl](2-{[2-(3-fluorophenyl)ethyl]amino}-6-(1-methylpyrazol-4-yl)(3-pyridyl))carboxamide], for which the IC50 was 699 nM. For `COC(=O)CNC(=O)c1ccc(-c2ccccc2C#N)nc1NCCc1cccc(F)c1` [methyl 2-[(6-(2-cyanophenyl)-2-{[2-(3-fluorophenyl)ethyl]amino}-3-pyridyl)carbonylamino]acetate], the IC50 is 101 nM. For `Cc1cc(C(=O)NCc2cccnc2CNC(=O)OC(C)(C)C)c(NCCc2cccc(F)c2)nc1-c1ccccc1C#N` [N-[(2-{[(tert-butoxy)carbonylamino]methyl}(3-pyridyl))methyl](6-(2-cyanophenyl)-2-{[2-(3-fluorophenyl)ethyl]amino}-5-methyl(3-pyridyl))carboxamide], the IC50 was 4250 nM. Turning to `N#Cc1ccccc1-c1ccc(C(=O)NCC2CCCCCN2C(=O)CCN)c(NCCc2cccc(F)c2)n1` (centres unmarked) [N-{[1-(3-aminopropanoyl)azaperhydroepin-2-yl]methyl}(6-(2-cyanophenyl)-2-{[2-(3-fluorophenyl)ethyl]amino}(3-pyridyl))carboxamide], the IC50 came to 256 nM. For `N#Cc1ccccc1-c1ccc(C(=O)NCc2cnccn2)c(NCCc2cccc(F)c2)n1` [(6-(2-cyanophenyl)-2-{[2-(3-fluorophenyl)ethyl]amino}(3-pyridyl))-N-(pyrazin-2-ylmethyl)carboxamide] the value was 26 nM; for `Cn1cc(-c2nc(NCCc3cccc(F)c3)c(C(=O)NC[C@H]3CCCN3C(=O)OC(C)(C)C)cc2Cl)cn1` [tert-butyl (2R)-2-{[(5-chloro-2-{[2-(3-fluorophenyl)ethyl]amino}-6-(1-methylpyrazol-4-yl)(3-pyridyl))carbonylamino]methyl}pyrrolidinecarboxylate], 1600 nM.

As for `Cn1cc(-c2ccc(C(=O)NCC3CCCCC(=O)N3)c(NCCc3cccc(F)c3)n2)cn1` (centres unmarked) [(2-{[2-(3-fluorophenyl)ethyl]amino}-6-(1-methylpyrazol-4-yl)(3-pyridyl))-N-[(7-oxoazaperhydroepin-2-yl)methyl]carboxamide], the IC50 was found to be 603 nM.

On to `O=C(NCc1cc[nH]n1)c1ccc(-c2cn[nH]c2)nc1NCCc1cccc(F)c1` [(2-{[2-(3-fluorophenyl)ethyl]amino}-6-pyrazol-4-yl(3-pyridyl))-N-(pyrazol-3-ylmethyl)carboxamide], for which the IC50 was found to be 34 nM. For `O=C(NCc1ccno1)c1ccc(-c2ccccc2)nc1NCCc1ccccn1` [N-(isoxazol-5-ylmethyl){6-phenyl-2-[(2-(2-pyridyl)ethyl)amino](3-pyridyl)}carboxamide], the IC50 stood at 836 nM. Then `N#Cc1ccccc1-c1ccc(C(=O)NCC2CCCCC(=O)N2)c(NCCc2cccc(F)c2)n1` (centres unmarked) [(6-(2-cyanophenyl)-2-{[2-(3-fluorophenyl)ethyl]amino}(3-pyridyl))-N-[(7-oxoazaperhydroepin-2-yl)methyl]carboxamide], with 95 nM. Then `N#Cc1ccccc1-c1ccc(C(=O)N[C@@H](CCCCN)C(N)=O)c(NCCc2cccc(F)c2)n1` [N-((1S)-5-amino-1-carbamoylpentyl)(6-(2-cyanophenyl)-2-{[2-(3-fluorophenyl)ethyl]amino}(3-pyridyl))carboxamide], with 4420 nM; and `CN1CCNC[C@@H]1CNC(=O)c1ccc(-c2ccccc2C#N)nc1NCCc1cccc(F)c1` [N-[((2R)-1-methylpiperazin-2-yl)methyl](6-(2-cyanophenyl)-2-{[2-(3-fluorophenyl)ethyl]amino}(3-pyridyl))carboxamide], with 15700 nM; and `Cn1cc(-c2ccc(C(=O)NC[C@H]3CCCN3C(=O)OC(C)(C)C)c(NCCc3cccc(F)c3)n2)cn1` [tert-butyl (2R)-2-{[(2-{[2-(3-fluorophenyl)ethyl]amino}-6-(1-methylpyrazol-4-yl)(3-pyridyl))carbonylamino]methyl}pyrrolidinecarboxylate], with 4640 nM.

Regarding `NCCNc1ncccc1CNC(=O)c1ccc(-c2cn[nH]c2)nc1NCCc1cccc(F)c1` [N-({2-[(2-aminoethyl)amino](3-pyridyl)}methyl)(2-{[2-(3-fluorophenyl)ethyl]amino}-6-pyrazol-4-yl(3-pyridyl))carboxamide], the IC50 is 122 nM. For `N#Cc1ccccc1-c1ccc(C(=O)NC[C@H]2O[C@@H](O)[C@H](O)[C@@H](O)[C@@H]2O)c(NCCc2cccc(F)c2)n1`, the half-inhibitory concentration (IC50) stood at 5540 nM. Turning to `Cn1cc(-c2nc(NCCc3cccc(F)c3)c(C(=O)NC[C@H]3CCCN3)cc2C#N)cn1` [N-[((2R)pyrrolidin-2-yl)methyl](5-cyano-2-{[2-(3-fluorophenyl)ethyl]amino}-6-(1-methylpyrazol-4-yl)(3-pyridyl))carboxamide], the IC50 came out at 281 nM. For `COC(=O)[C@H](N)CNC(=O)c1ccc(-c2ccccc2C#N)nc1NCCc1cccc(F)c1` [methyl (2R)-2-amino-3-[(6-(2-cyanophenyl)-2-{[2-(3-fluorophenyl)ethyl]amino}(3-pyridyl))carbonylamino]propanoate] the value was 2290 nM. For `CC(C)(C)OC(=O)NCCCN1CC(=O)N[C@H](CNC(=O)c2ccc(-c3ccccc3C#N)nc2NCCc2cccc(F)c2)C1` [N-[((2R)-4-{3-[(tert-butoxy)carbonylamino]propyl}-6-oxopiperazin-2-yl)methyl](6-(2-cyanophenyl)-2-{[2-(3-fluorophenyl)ethyl]amino}(3-pyridyl))carboxamide] the value was 9540 nM. Turning to `N#Cc1ccccc1-c1ccc(C(=O)NCCO)c(NCCc2cccc(F)c2)n1` [(6-(2-cyanophenyl)-2-{[2-(3-fluorophenyl)ethyl]amino}(3-pyridyl))-N-(2-hydroxyethyl)carboxamide], the IC50 came out at 1080 nM. On to `COC(=O)CNC[C@H](N)CNC(=O)c1ccc(-c2ccccc2C#N)nc1NCCc1cccc(F)c1` [methyl 2-({(2S)-2-amino-3-[(6-(2-cyanophenyl)-2-{[2-(3-fluorophenyl)ethyl]amino}(3-pyridyl))carbonylamino]propyl}amino)acetate], for which the IC50 stood at 913 nM. In the case of `N#Cc1ccccc1-c1ccc(C(=O)N[C@@H](CN)C(=O)O)c(NCCc2cccc(F)c2)n1` [(2S)-3-amino-2-[(6-(2-cyanophenyl)-2-{[2-(3-fluorophenyl)ethyl]amino}(3-pyridyl))carbonylamino]propanoic acid], the IC50 stood at 11100 nM.

On to `N#Cc1ccccc1-c1ccc(C(=O)NC[C@H]2CCCCN2C(=O)[C@H](N)CCCN)c(NCCc2cccc(F)c2)n1` [N-{[(2R)-1-((2R)-2,5-diaminopentanoyl)(2-piperidyl)]methyl}(6-(2-cyanophenyl)-2-{[2-(3-fluorophenyl)ethyl]amino}(3-pyridyl))carboxamide], for which the IC50 is 456 nM.

As for `CNC(=O)CNC(=O)c1ccc(-c2cn[nH]c2)nc1NCCc1cccc(F)c1` [2-[(2-{[2-(3-fluorophenyl)ethyl]amino}-6-pyrazol-4-yl(3-pyridyl))carbonylamino]-N-methylacetamide], the half-maximal inhibitory concentration (IC50) stood at 328 nM. For the molecule `N#Cc1cscc1-c1ccc(C(=O)NCc2cccnc2)c(NCCc2cccc(F)c2)n1` [(6-(4-cyano(3-thienyl))-2-{[2-(3-fluorophenyl)ethyl]amino}(3-pyridyl))-N-(3-pyridylmethyl)carboxamide], the IC50 worked out at 14 nM. Take `NCc1ncccc1CNC(=O)c1ccc(-c2cn[nH]c2)nc1NCCc1ccccn1` [N-{[2-(aminomethyl)(3-pyridyl)]methyl}{6-pyrazol-4-yl-2-[(2-(2-pyridyl)ethyl)amino](3-pyridyl)}carboxamide]: the concentration for half-maximal inhibition (IC50) is 1240 nM.

On to `N#Cc1ccccc1-c1nc(NCCc2cccc(F)c2)c(C(=O)NCc2cccnc2)cc1Br` [(5-bromo-6-(2-cyanophenyl)-2-{[2-(3-fluorophenyl)ethyl]amino}(3-pyridyl))-N-(3-pyridylmethyl)carboxamide], for which the IC50 was 2650 nM.
